Legend:
CCRF-CEM cell line = experiment: MTS cell viability assay, CCRF-CEM cell line; assay type: cell-based; details: 4 h incubation then 48 h
Procedure: All cell lines used in this research were cultured in American Type Culture Collection recommended medium, with 10% fetal bovine serum (Invitrogen, Carlsbad, Calif.) and 0.5 mg/mL penicillin-streptomycin (American Type Culture Collection) at 37° C. under a 5% CO2 atmosphere. CCRF-CEM (T-cell line) and K562 ([…]) were cultured in RPMI 1640 medium; MDA-MB-231 (breast cancer cells were cultured in L-15 medium; DU145 (prostate cancer cell) was cultured in EMEM medium; Hela (cervical cancer cell), HEK293 (human kidney cell) and HU1545v (human untransformed liver cell) were cultured in DMEM medium. Cells were washed before and after incubation with washing buffer [4.5 g/L glucose and 5 mM MgCl2 in Dulbecco's PBS with calcium chloride and magnesium chloride (Sigma-Aldrich)]. Binding buffer was prepared by adding yeast tRNA (0.1 mg/mL; Sigma-Aldrich) and BSA (1 mg/mL; Fisher Scientific) to the washing buffer to reduce background binding. All reagents for buffer preparation and HPLC purification came from Fisher Scientific. […]
A cell viability assay to measure the cytotoxicity of the aptamer-drug conjugate 21 and aptamer-ligand conjugate 28 were performed, as indicated in FIG. 13. […] The assay was allotted 2 h at 37° C. for development, and then the 490 nm absorbance of each well was collected on a Tecan plate 110 reader. […]

CCRF-CEM cells = experiment: Flow cytometry analysis, CCRF-CEM cells; assay type: cell-based; details: 250 nM, 2 h at 4° C.
Procedure: Flow Cytometry Analysis was conducted as follows. Cells were plated in a 35 mm cell culture dish (Corning Incorporated, Corning, N.Y., USA) and grown to around 80% confluency for 24 h before the experiments. Cells were washed twice with 1 mL PBS and then incubated with the prepared aptamer-drug conjugate and LIB-drug conjugate at the concentration of 250 nM for 2 h at 4° C. After incubation, cells were washed with washing buffer three times, dispersed in 80 μL binding buffer, and finally subjected to flow cytometry analysis using a FACScan cytometer (Becton Dickinson Immunocytometry Systems, San Jose, Calif., USA). Fluorescence was determined by counting 30,000 events, and data were analyzed with FlowJo software.
Flow cytometry assays of conjugate 30 (sgc8c-27) with the K562 cell line (left) and the CCRF-CEM cell line are shown in FIGS. 26A and 26B, respectively. Random aptamer sequences conjugated to 27 to create LIB-27 were used as negative control. […] In Similar manner, flow cytometry analysis of MDA-MB-231 cell, PC3 cell, HEK293 cell and HU1545 cell, FIGS. 27A-27D, respectively, after incubated with 32 (AS1411-29) were conducted. AS1411 aptamer was used as positive control, and random library sequences was used as negative control.

[1] = test system: cervical carcinoma (HeLa) cells; details: background; cited from earlier work
[2] = test system: cis-platin resistant cancer cells; details: background; cited from earlier work

1-(anthracen-9-ylmethyl)-3-(4-N-sgc8c-aptamer-carbamoylbenzyl) benzo[d]imidazolium gold(I) chloride [complex 27]
IC50 (CCRF-CEM cell line): 31.1 ± 2.11 µM

sgc8c: leukemia-specific aptamer 5′-ATCTAACTGCTGCGCCGCCGGGAAAATACTGTACGGTTAGA-3′ (ATCTAACTGCTGCGCCGCCGGGAAAATACTGTACGGTTAGA; listed as DNA, chemistry not fully specified)
fluorescence intensity of cells (flow cytometry) (CCRF-CEM cells): fluorescence intensity increases

CC(=O)OC[C@H]1O[C@@H]([S-])[C@H](OC(C)=O)[C@@H](OC(C)=O)[C@@H]1OC(C)=O.CCP(CC)CC.[Au+] [Auranofin]
activity against HeLa cells in vitro [1]: highly active | effect against cis-platin resistant cancer cells [2]: effective
